Test results published in PMC10589072, “Evaluation of Potential Peptide-Based Inhibitors against SARS-CoV-2 and Variants of Concern” (BioMed Research International, 2023).
Where no end group is shown, it is not given here.

Key:
[1] = molecular target: T1, SARS-CoV-2 spike S1 protein (Severe acute respiratory syndrome coronavirus 2, UniProt P0DTC2); assay: biochemical; type: binding
T1 construct: The fluorescent dye NT647 was used to label the SARS-CoV-2 spike S1; purchased Sino Biological 40591-V08H

[2] = system: 293T ACE-2 SSC22 cells (HEK 293T expressing ACE2 receptor)
Method: The cytotoxicity of the peptides was assessed using a viability assay. […] Cells with peptides were cultured for 3 days, after which cell viability was measured using an ATP assay (Promega, G9681).

Substance: IDWQFWFHYDKWDHEWEDEWYQSS-NH2 [Peptide P25]
- KD compared with ACE2-S protein affinity [1]: comparable to the observed affinity between the S protein and ACE2
- Kd ([1]; 21°C, read-out: KD (constant of dissociation)): 42.2 nM
- cytotoxicity ([2]; 0.125 to 4 mM, 72 hours, ATP assay, n = 3): low toxicity
- cell viability ([2]; 72 h, 4 mM): 91-100%
